Data from PubChem BioAssay AID608 (Sanford-Burnham Center for Chemical Genomics, 2007).
pKd: −log10 of the molar value. Activity calls are given as the source filed them. How the calls were made is not given here.

Each molecule was assayed against Peptidyl-prolyl cis-trans isomerase FKBP1A (Homo sapiens) (UniProt P62942) (assay: FKBP12 binders, biophysical, NMR detection (AID 608)). Settings: NMR binding, purified FKBP12.
Chain of Peptidyl-prolyl cis-trans isomerase FKBP1A (Homo sapiens) (P62942 whole entry, looked up): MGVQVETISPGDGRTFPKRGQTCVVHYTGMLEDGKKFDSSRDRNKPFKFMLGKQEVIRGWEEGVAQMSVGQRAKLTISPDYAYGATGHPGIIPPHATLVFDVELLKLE
`C/C=C/C(=O)Nc1ccc(NC(C)=O)cc1` was tested, and the Kd was > 4 mM (inactive).
`Cc1cc(C(=O)NC(C)c2ccncc2)no1` (stereo not drawn) was tested, and the Kd was > 4 mM (inactive).
In the case of `CCC(/C=C/[C@@H](C)[C@H]1CCC2C3CC=C4C[C@@H](O)CC[C@]4(C)C3CC[C@@]21C)C(C)C` (stereo partly drawn), the Kd was > 4 mM (inactive).
`NCc1ccccc1N1CCOCC1` was tested, and the Kd was > 4 mM (inactive).
`CCOCC(=O)NCc1n[nH]c(=O)c2ccccc12` was tested, and the Kd was > 4 mM (inactive).
In the case of `Cc1nnsc1C(=O)O`, the Kd was > 4 mM (inactive).
For `COc1cc2c(cc1OC)C1Cc3ccc(OC)c(OC)c3CN1CC2` (stereo not drawn), the Kd was > 4 mM (inactive).
For `Cc1occc1C(=O)Nc1nnc(C(F)(F)F)s1`, the Kd was > 4 mM (inactive).
With `COc1cccc2c(=O)n(CC(N)=O)ccc12` the Kd was > 4 mM (inactive).
`Oc1ccc(-n2cncn2)cc1` was tested, and the Kd was > 4 mM (inactive).
In the case of `O=C(NCCO)c1cc2ccccc2cc1O`, the Kd was > 4 mM (inactive).
With `Cc1scc(C(=O)Nn2cnnc2)c1-c1ccccc1` the Kd was > 4 mM (inactive).
`NC(=O)CN1CCC(c2nc3ccccc3[nH]2)CC1` was tested, and the Kd was > 4 mM (inactive).
In the case of `COc1ccc2c(c1)[n+](=O)c(C(C)=O)c(C)n2[O-]`, the Kd was > 4 mM (inactive).
For `COc1ccc(N/C(N)=N\c2nc(C)cc(C)n2)cc1`, the Kd was > 4 mM (inactive).
`NC(=O)CSc1ccc2nnc(-c3cccs3)n2n1` was tested, and the Kd was > 4 mM (inactive).
`O=C(Nn1cnnc1)c1cccc(C(F)(F)F)c1` was tested, and the Kd was > 4 mM (inactive).
`Cc1cc(C(=O)N2CCN(S(C)(=O)=O)CC2)cs1` was tested, and the Kd was > 4 mM (inactive).
In the case of `Cc1nnc(NCCO)[nH]c1=O`, the Kd was > 4 mM (inactive).
For `Cc1c(C(=O)Nc2cnccn2)oc2ccccc12`, the Kd was > 4 mM (inactive).
With `CC(=O)O[C@H]1C[C@@H](OC(C)=O)C(C)(C)C2C[C@@H](OC(C)=O)[C@]3(C)C([C@H](OC(C)=O)C[C@@]4(C)[C@H](c5ccoc5)OC(=O)[C@H]5O[C@]543)[C@]21C` (stereo partly drawn) the Kd was > 4 mM (inactive).
In the case of `Fc1ccc(Br)cc1/C=N/n1cnnc1`, the Kd was > 4 mM (inactive).
`NC(=O)c1ccc(Cl)c(N2C(=O)CCC2=O)c1` was tested, and the Kd was > 4 mM (inactive).
With `O=C(O)CC1C(=O)NCCN1Cc1cccs1` (stereo not drawn) the Kd was > 4 mM (inactive).
In the case of `Cc1nnc2sc(-c3ccco3)nn12`, the Kd was > 4 mM (inactive).
For `Nc1cccc(OCC(=O)N2CCOCC2)c1`, the Kd was > 4 mM (inactive).
With `OCc1ccc2c(c1)OCCO2` the Kd was > 4 mM (inactive).
With `CCN1C[C@@]2(COC)C3[C@@H](OC)[C@H]4[C@@H]1[C@]3(C(OC)C[C@H]2O)C1C[C@@]2(O)[C@H](OC(=O)c3ccccc3)C1[C@]4(OC(C)=O)[C@@H](O)[C@@H]2OC` (stereo partly drawn) the Kd was > 4 mM (inactive).
In the case of `COc1cc(C/C=C/c2ccccc2)c(OC)cc1O`, the Kd was > 4 mM (inactive).
For `O=C1CC(N2CCC(O)CC2)C(=O)N1c1ccc(F)cc1` (stereo not drawn), the Kd was > 4 mM (inactive).
With `O=C(O)c1ccc(CN2CCOCC2)cc1` the Kd was > 4 mM (inactive).
In the case of `N#Cc1ccccc1Cn1c(-c2cscn2)nc2ccccc21`, the Kd was “inactive”.
In the case of `Cc1cc(=O)c2ccccc2n1CC(N)=O`, the Kd was > 4 mM (inactive).
`Nc1ncnc2nc(SCCN3CCCCC3)[nH]c12` was tested, and the Kd was > 4 mM (inactive).
In the case of `O=C(Cc1c(F)cccc1Cl)Nc1ccncc1`, the Kd was > 4 mM (inactive).
In the case of `CC1(C)Oc2ccc3ccc(=O)oc3c2CC1O` (stereo not drawn), the Kd was > 4 mM (inactive).
`O=[N+]([O-])c1cccc(-c2c[n+](=O)c3c(n2[O-])CCC3)c1` was tested, and the Kd was > 4 mM (inactive).
`COc1cc(NC(=O)c2ccccc2)c(C)cc1N` was tested, and the Kd was > 4 mM (inactive).
For `CC1=CCCC2C1(C)CCC(C)C2(C)CC/C(C)=C/C[n+]1cn(C)c2c(N)ncnc21` (stereo not drawn), the Kd was > 4 mM (inactive).
In the case of `O=C(C1CCC(C(=O)N2CCCC2)CC1)N1CCCC1` (stereo not drawn), the Kd was > 4 mM (inactive).
In the case of `Oc1ccc2c(c1)OCC1(O)Cc3cc(O)c(O)cc3C21` (stereo not drawn), the Kd was > 4 mM (inactive).
For `Cn1cnc2c(=S)[nH]c(=O)n(Cc3ccccc3)c21`, the Kd was > 4 mM (inactive).
For `O=C1C=C(Nc2ccc(O)cc2)c2ccccc2C1=O`, the Kd was > 4 mM (inactive).
In the case of `C[C@]12C=CC(=O)C=C1CCC1C2CC[C@]2(C)C(=O)CCC12` (stereo partly drawn), the Kd was > 4 mM (inactive).
For `O=C1CCCN1C(=O)c1ccc(F)cc1`, the Kd was > 4 mM (inactive).
`COc1ccc(Cl)cc1NS(=O)(=O)N1CCCCC1` was tested, and the Kd was “inactive”.
For `Cc1cc(OCC(=O)N2CCOCC2)c(C(C)C)cc1Cl`, the Kd was “inactive”.
`CN=C(C)c1c(O)n(C)c(=O)n(C)c1=O` was tested, and the Kd was > 4 mM (inactive).
For `O=C(O)C1CCCN1Cc1c[nH]c2ccccc12` (stereo not drawn), the Kd was > 4 mM (inactive).
For `CC(=O)Nc1ccc(NC(=O)c2ccncc2)cc1`, the Kd was > 4 mM (inactive).
With `CN(C)Cc1c(N)cccc1O` the Kd was > 4 mM (inactive).
`O=C(NCc1cccc(Cl)c1)c1ccco1` was tested, and the Kd was > 4 mM (inactive).
With `OCc1cc2ccccc2o1` the Kd was > 4 mM (inactive).
In the case of `Cc1n[nH]c(C)c1-c1ccccc1C(=O)O`, the Kd was > 4 mM (inactive).
For `COc1cc2nc[nH]c(=O)c2cc1OC`, the Kd was > 4 mM (inactive).
For `CCn1nnc(NC(=O)c2ccccc2Br)n1`, the Kd was > 4 mM (inactive).
`O=c1cnnc(Nc2ccc(O)cc2)[nH]1` was tested, and the Kd was > 4 mM (inactive).
`COC(=O)c1ccc2nc[nH]c2c1` was tested, and the Kd was > 4 mM (inactive).
For `O=C(Nn1cnnc1)c1csc2c1CCCC2`, the Kd was > 4 mM (inactive).
For `NC1=NC(=O)/C(=C\c2ccco2)S1`, the Kd was > 4 mM (inactive).
With `CC1=CC2C(CC1=O)C(C)=CCC2C(C)C` (stereo not drawn) the Kd was > 4 mM (inactive).
For `NCc1n[nH]c(=O)c2ccccc12`, the Kd was > 4 mM (inactive).
In the case of `O=C(O)Cc1csc(-c2ccccc2)n1`, the Kd was > 4 mM (inactive).
`Cc1cc(=O)oc2cc(O)c(O)cc12` was tested, and the Kd was > 4 mM (inactive).
In the case of `C[N+](C)(C)CC(O)CC(=O)O` (stereo not drawn), the Kd was > 4 mM (inactive).
`COc1cc(C(=S)N2CCCC2)cc(Cl)c1O` was tested, and the Kd was > 4 mM (inactive).
`NC(=S)CN1CCCC1=O` was tested, and the Kd was > 4 mM (inactive).
With `CC(C)NC(=O)c1cc(=O)n(C)c(=O)n1C` the Kd was > 4 mM (inactive).
In the case of `CC(C)NC(=O)c1cc(-n2cnnc2)ccc1Cl`, the Kd was > 4 mM (inactive).
For `COc1cc2c(cc1OC)[C@@H]1C(=O)c3ccc(O)c(CC=C(C)C)c3O[C@@H]1CO2`, the Kd was > 4 mM (inactive).
`O=c1cccc2n1CC1CC2CN2CCCC[C@@H]12` (stereo partly drawn) was tested, and the Kd was > 4 mM (inactive).
`COC1=C(OC)C(=O)C(C/C=C(\C)CC/C=C(\C)CC/C=C(\C)CC/C=C(/C)CC/C=C(\C)CC/C=C(\C)CC/C=C(\C)CC/C=C(\C)CC/C=C(\C)CCC=C(C)C)=C(C)C1=O` was tested, and the Kd was > 4 mM (inactive).
In the case of `Cc1cc(C(=O)N2CCN(c3ncccn3)CC2)c(C)o1`, the Kd was > 4 mM (inactive).
In the case of `CC(=O)Nc1nc(C)c(C(C)=O)s1`, the Kd was > 4 mM (inactive).
With `CC(=O)NC(=S)Nc1ccccc1C(N)=O` the Kd was > 4 mM (inactive).
In the case of `Cc1nn(CC(=O)N2CCCCC2)c(=O)c2ccccc12`, the Kd was > 4 mM (inactive).
For `CC1(C)O[C@H]2[C@H](O)C[C@](O)(C(N)=O)C[C@H]2O1`, the Kd was > 4 mM (inactive).
With `CN(C)N1C(=O)C2C3C=CC(O3)C2C1=O` (stereo not drawn) the Kd was > 4 mM (inactive).
With `S=c1[nH]c2cccnc2[nH]1` the Kd was > 4 mM (inactive).
With `Cn1[nH]c(C(F)(F)F)cc1=O` the Kd was > 4 mM (inactive).
`COc1ccc2c(c1OC)C(=O)N(c1ncn[nH]1)C2` was tested, and the Kd was > 4 mM (inactive).
For `c1ccc(SCc2nc(-c3cccnc3)no2)cc1`, the Kd was > 4 mM (inactive).
For `CC(=O)O[C@@H]1CC2C(C)(C)C=CC(=O)[C@]2(C)C2CC[C@@]3(C)[C@H](c4ccoc4)OC(=O)C4OC43[C@@]21C` (stereo partly drawn), the Kd was > 4 mM (inactive).
In the case of `O=C(O)CNCC(O)Cn1c2ccccc2c2ccccc21` (stereo not drawn), the Kd was > 4 mM (inactive).
With `COc1cccc(O)c1O` the Kd was > 4 mM (inactive).
For `CCC[C@@H]1CCCCN1`, the Kd was > 4 mM (inactive).
For `C[C@H]1[C@H]2CCC3C4CC=C5C[C@@H](N(C)C)CC[C@]5(C)C4CC[C@@]32CN1C` (stereo partly drawn), the Kd was > 4 mM (inactive).
`NC(=O)CC1Nc2cccc3cccc(c23)NC1=O` (stereo not drawn) was tested, and the Kd was > 4 mM (inactive).
In the case of `Oc1ccc([C@H]2Oc3cc(O)cc(O)c3C[C@H]2O)cc1`, the Kd was > 4 mM (inactive).
`CSc1ccc(C2NC(=O)CCC2[N+](=O)[O-])cc1` (stereo not drawn) was tested, and the Kd was > 4 mM (inactive).
With `OC1CCN(C(=S)NC2CC2)CC1` the Kd was > 4 mM (inactive).
With `NC1=NC(=O)/C(=C/c2ccccc2[N+](=O)[O-])S1` the Kd was > 4 mM (inactive).
In the case of `Nc1cc2ccccc2cn1`, the Kd was > 4 mM (inactive).
In the case of `CN(C)C1CCS(=O)(=O)C1` (stereo not drawn), the Kd was > 4 mM (inactive).
With `N[C@@H](CCC(=O)N[C@@H](CS)C(=O)NCC(=O)O)C(=O)O` the Kd was > 4 mM (inactive).
In the case of `C=C[C@](C)(O)CCC=C(C)C`, the Kd was > 4 mM (inactive).
`Cn1c(=O)c2c(n(C)c1=O)=NC1(CCCCC1)N=2` was tested, and the Kd was > 4 mM (inactive).
For `c1ccc(CCN2CCN(CCc3ccccn3)CC2)nc1`, the Kd was > 4 mM (inactive).
With `COCC(=O)Nc1ccc(F)cc1F` the Kd was > 4 mM (inactive).
For `CC(=O)Nc1ccccc1-c1ccccc1NC(C)=O`, the Kd was > 4 mM (inactive).
With `c1ccc2nc3c(nc2c1)CCc1nonc1-3` the Kd was > 4 mM (inactive).
With `C[C@@H]1O[C@@H](O[C@H]2[C@@H](Oc3cc(O)c4c(c3)O[C@H](c3ccc(O)cc3)CC4=O)O[C@H](CO)[C@@H](O)[C@@H]2O)[C@H](O)[C@H](O)[C@H]1O` the Kd was > 4 mM (inactive).
With `O=C1Nc2ccccc2C1(O)Cc1ccncc1` (stereo not drawn) the Kd was > 4 mM (inactive).
With `CC(=O)O[C@@H]1CC2C(C)(C)[C@@H](O)CC[C@]2(C)C2CC[C@@]3(C)[C@H](c4ccoc4)OC(=O)[C@H]4O[C@]43[C@@]21C` (stereo partly drawn) the Kd was > 4 mM (inactive).
`Nc1ccccc1-c1nc2ccccc2[nH]1` showed a pKd of 3.54.
`CCOC(=O)c1c[nH]c2c(F)cccc2c1=O` was tested, and the Kd was > 4 mM (inactive).
`O=C1CNC(=O)N1Cc1ccc(Br)cc1` was tested, and the Kd was > 4 mM (inactive).
In the case of `CC(C)=CCc1c(O)cc2occ(-c3ccc4c(c3)OCO4)c(=O)c2c1O`, the Kd was > 4 mM (inactive).
`COc1ccc(/C=C2/SC(N)=NC2=O)c(OC)c1` was tested, and the Kd was > 4 mM (inactive).
With `COC(=O)C[C@H]1C(C)(C)C(OC(C)=O)[C@]2(O)C=C3C(CC[C@]4(C)C3CC(=O)O[C@H]4c3ccoc3)C1(C)C2=O` (stereo partly drawn) the Kd was > 4 mM (inactive).
For `Nc1ccc(NC(=O)c2ccco2)c(Cl)c1`, the Kd was > 4 mM (inactive).
With `Cc1cc2c(=O)n(C)c(SCC(N)=O)nc2s1` the Kd was > 4 mM (inactive).
`Cn1ncc2c(=O)n(CC(=O)c3ccccc3)cnc21` was tested, and the Kd was > 4 mM (inactive).
